From patent US20090312414A1, “Treatment Of Lower Urinary Tract Dysfunction With CB2-Receptor-Selective Agonists” (priority 2008, published 2009)

What was measured:
[1] = target: CB2 receptor (Homo sapiens, UniProt P34972); test: CB2 binding assay (displacement of radiolabeled agonist); details: for IC50: displaces 50% of a radiolabeled agonist
[2] = target: CB1 receptor (Homo sapiens, UniProt P21554); test: biochemical; assay type: binding; details: displaces 50% of a radiolabeled agonist
[3] = test system: urethane-anesthetized rats, acetic acid model; test: Cystometry in acetic acid bladder hyperactivity model; assay type: in vivo, rat; details: for Effect on intercontraction interval (ICI): any tested dose i.v., 20, 40 or 60 min after administration
Method: As used herein, the term “acute” means that the animals were dosed only one time, 30 minutes prior to taking the cystometry measurements (i.e., 30 minutes prior to the observation period). The acetic acid-induced model is an irritative model in which increased micturition frequency (decreased micturition interval) and reduced bladder capacity cystometry may be obtained after an intravesical infusion of a dilute solution of acetic acid (McMurray G, Casey J H, Naylor A M. Animal models in urological disease and sexual dysfunction. Br J Pharmacol. 2006; 147 Suppl:S62; Kakizaki H, de Groat W C. Role of spinal nitric oxide in the facilitation of the micturition reflex by bladder irritation. J Urol 1996; 155:355).
Adult female Wistar rats (Janvier, Le Genest Saint Lisles, France), weighing 225-250 g were used. They were delivered to the laboratory at least 5 days before the experiments in order to be acclimatized to laboratory conditions, and were given food (Teklad Global 16% Protein Rodent Diet, Harlan, Gannat, France) and water ad libitum. The animal room was maintained at 21-24° C. with a 12/12 hours alternating light-dark cycle (light phase 07:00-19:00).
Rats were anesthetized by intraperitoneal injection of urethane (1.5 g/kg). After making a midline incision of the abdomen, a polyethylene catheter (0.3 mm ID and 0.7 mm OD) was implanted in the bladder through the dome. An IV catheter (0.58 mm ID and 0.96 mm OD) was also introduced into a jugular vein for test substance administration.
CB2-receptor-selective agonists (compounds of Formulas II, III and IV) were initially dissolved in a vehicle containing a co-solvent mixture of Cremophor EL® (70%, BASF Corporation, Florham Park, N.J.) and ethanol (30%) as a 20-fold concentrated stock solution of the highest dose for testing. For lower doses, individual 20× stock solutions in Cremophor EL® (70%) and ethanol (30%) were also prepared by further dilution of the original 20× stock solution. Just prior to use, the appropriate 20× compound stock solution or vehicle was diluted 1:20 dilution (v:v) with saline to give the appropriate final concentration for dosing, and a single test substance or its vehicle were administered intravenously in a volume of 5 ml/kg and at an infusion rate of 0.2 ml/min.
Cystometric investigations were performed in the urethane anesthetized rats after bladder and jugular vein catheter implantation surgery. The bladder catheter was connected via a T-tube to a MX 860 Novatrans III Gold strain gauge (Medex Medical SARL, Nantes-Carquefou, France) and to a single-syringe infusion pump (70-2208 Model II Plus, Harvard Apparatus; Les Ulis, France). Physiological saline or 0.2% acetic acid (AA) in saline was infused into the bladder at a constant flow rate (0.05 ml/min), and intravesical pressure was recorded continuously using a MacLab/8e interface (ADInstruments Pty Ltd., Castle Hill, Australia) and the Chart software program. After a control period of 30 minutes (to calculate basal values), a single test substance or its vehicle were administered IV and the intravesical pressure was recorded for 1 hour after compound administration.
Intravesical pressure data were analyzed with Microsoft Excel software. The micturition parameters measured were the following: Basal Pressure (“BP,” mmHg); Threshold Pressure (“ThP,” pressure at which micturition occurs, mmHg); Amplitude of Micturition (“AM,” pressure between ThP and Micturition Pressure, mmHg); Intercontraction Interval (“ICI,” time between two subsequent micturitions, sec); Micturition Frequency (“MF,” number of micturition contractions per 15 minute interval); and Area Under the Curve (“AUC” per 15 minute interval, mmHg·sec) was calculated from the lowest intravesical pressure value during the 15 minute interval. Bladder capacity (“BC”) was measured in ml.
For each rat, basal values for each parameter were calculated as the mean of the last four micturitions before vehicle or test substance administration. […]

CB2 receptor, sequence (P34972 whole entry): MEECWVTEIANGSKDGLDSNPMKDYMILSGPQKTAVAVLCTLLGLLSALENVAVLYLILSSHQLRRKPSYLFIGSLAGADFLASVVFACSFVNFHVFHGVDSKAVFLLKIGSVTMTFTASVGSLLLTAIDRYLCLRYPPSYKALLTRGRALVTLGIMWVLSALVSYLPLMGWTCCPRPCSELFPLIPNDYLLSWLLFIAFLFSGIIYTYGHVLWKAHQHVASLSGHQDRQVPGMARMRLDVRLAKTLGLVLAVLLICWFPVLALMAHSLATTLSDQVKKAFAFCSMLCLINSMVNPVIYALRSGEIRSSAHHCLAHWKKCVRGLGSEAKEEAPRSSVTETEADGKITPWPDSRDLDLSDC
CB1 receptor, sequence (P21554 whole entry): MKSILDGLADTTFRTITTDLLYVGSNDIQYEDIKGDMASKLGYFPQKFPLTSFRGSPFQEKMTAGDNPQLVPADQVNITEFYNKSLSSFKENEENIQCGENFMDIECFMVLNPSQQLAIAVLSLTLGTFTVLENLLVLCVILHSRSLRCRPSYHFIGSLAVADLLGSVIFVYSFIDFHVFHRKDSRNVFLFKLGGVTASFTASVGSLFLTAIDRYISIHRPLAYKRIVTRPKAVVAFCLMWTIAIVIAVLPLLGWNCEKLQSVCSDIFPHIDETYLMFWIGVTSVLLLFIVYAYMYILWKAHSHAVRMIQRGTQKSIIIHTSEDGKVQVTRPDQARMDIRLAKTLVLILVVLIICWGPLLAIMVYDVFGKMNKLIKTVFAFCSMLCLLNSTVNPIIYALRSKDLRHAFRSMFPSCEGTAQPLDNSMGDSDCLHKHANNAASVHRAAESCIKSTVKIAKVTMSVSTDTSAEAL

Work on `CCCCCCC(C)(C)c1cc(O)c2c(c1)OC1CCCCCC21` (centres unmarked) [Formula III] yielded a CB2/CB1 affinity ratio [1] of 14, an IC50 [1] of 6.5 nM and an IC50 [2] of 92 nM. The “Effect on threshold pressure (ThP)” value ([3]; 3 mg/kg i.v., all time points, vs basal values) was “significantly increased”, the “Effect on basal pressure (BP)” value ([3]; 3 mg/kg i.v., from 0 to 60 min, p<0.05) was “significantly increased” and the “Effect on intercontraction interval (ICI)” value ([3]; vs basal values) was “no effect”.
Work on `CCCCC(C)(C)c1cc(O)c([C@H]2C=C(CO)[C@H]3C[C@@H]2C3(C)C)c(O)c1` [Formula II] yielded a CB2/CB1 affinity ratio [1] of 21, an IC50 [1] of 8.4 nM and an IC50 [2] of 181 nM. The “Effect on threshold pressure (ThP)” value ([3]; 0.5 mg/kg i.v., at 20, 40 and 60 min, p<0.05) was “Significant increases”, the “Effect on threshold pressure (ThP)” value ([3]; 1.5 mg/kg i.v., at 40 min, p<0.05) was “Significant increases” and the “Effect on threshold pressure (ThP)” value ([3]; 5 mg/kg i.v., at 20 and 40 min, p<0.05) was “Significant increases”. For the same molecule, the “Effect on basal pressure (BP)” value ([3]; 5 mg/kg i.v., at 20 min, p<0.05) was “significantly increased” and the “Effect on intercontraction interval (ICI)” value ([3]; vs basal values) was “no effect”.
`O=S(=O)(NCC1CC1)c1ccc(Nc2ccc(Cl)cc2Cl)cc1C(F)(F)F` [Formula IV, N-Cyclopropylmethyl-4-(2,4-dichloro-phenylamino)-2-trifluoromethyl-benzenesulfonamide] was tested, and the CB2/CB1 affinity ratio [1] was 10, the IC50 [1] was 30 nM and the IC50 [2] was 313 nM. The “Effect on threshold pressure (ThP)” value ([3]; 15 mg/kg i.v., at 20 min, vs basal values) was “significant increase”, the “Effect on basal pressure (BP)” value ([3]; any dose (1.5, 5, 15 mg/kg i.v.) or time point, vs basal values) was “not changed” and the “Effect on intercontraction interval (ICI)” value ([3]; vs basal values) was “no effect”.
